Test results from PMC12257510, “Structure-Guided Design of a KMT9 Inhibitor Prodrug with Cellular Activity” (Journal of Medicinal Chemistry, 2025).

Assays:
KMT9 = molecular target: T1, KMT9 (Homo sapiens, UniProt Q9Y5N5); test: Microscale thermophoresis (MST) binding assay
T1 sequence (Q9Y5N5 1-214): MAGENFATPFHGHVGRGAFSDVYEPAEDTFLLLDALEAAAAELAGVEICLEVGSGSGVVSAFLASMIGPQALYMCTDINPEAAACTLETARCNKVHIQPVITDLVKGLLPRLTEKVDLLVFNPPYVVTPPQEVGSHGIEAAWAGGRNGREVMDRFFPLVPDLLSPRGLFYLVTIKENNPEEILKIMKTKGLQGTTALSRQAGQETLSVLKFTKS
T1 sequence (Q9UI30 1-125 partner): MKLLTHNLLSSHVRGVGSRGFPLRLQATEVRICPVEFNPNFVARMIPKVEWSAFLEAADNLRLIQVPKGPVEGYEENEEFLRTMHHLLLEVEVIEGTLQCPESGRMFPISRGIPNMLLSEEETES
Experimental: To determine the binding affinity of the compound and KMT9, microscale thermophoresis (MST) analysis was performed with a NanoTemper Monolith NT.115 instrument (NanoTemper Technologies GmbH). KMT9 was labeled with a RED-Tris-NTA labeling kit (NanoTemper Technologies GmbH) based on the manufacturer’s instructions. Buffer including 25 mM HEPES (pH 7.5), 100 mM NaCl, 1 mM DTT and 0.05% Tween was used for the reaction buffer. Varying concentrations of compounds were titrated against His-tag labeled KMT9 proteins (20 nM). Samples were loaded into standard Capillaries (NanoTemper Technologies GmbH) and MST measurements were performed using 40% MST power and 100% LED power. For each set of binding experiments, MST measurement was carried out with Binding Affinity module in MO. Control program under Nano-RED excitation. Data sets were processed with the MO.Affinity Analysis software (NanoTemper Technologies GmbH).

KMT5A = molecular target: T2, KMT5A (Homo sapiens, UniProt Q9NQR1); test: CETSA in HepG2 cells, KMT5A; type: cell-based; design: KMT5A upon treatment with compound 8 compared to DMSO; endogenous in cells; host or cells: HepG2
T2 sequence (Q9NQR1 1-393): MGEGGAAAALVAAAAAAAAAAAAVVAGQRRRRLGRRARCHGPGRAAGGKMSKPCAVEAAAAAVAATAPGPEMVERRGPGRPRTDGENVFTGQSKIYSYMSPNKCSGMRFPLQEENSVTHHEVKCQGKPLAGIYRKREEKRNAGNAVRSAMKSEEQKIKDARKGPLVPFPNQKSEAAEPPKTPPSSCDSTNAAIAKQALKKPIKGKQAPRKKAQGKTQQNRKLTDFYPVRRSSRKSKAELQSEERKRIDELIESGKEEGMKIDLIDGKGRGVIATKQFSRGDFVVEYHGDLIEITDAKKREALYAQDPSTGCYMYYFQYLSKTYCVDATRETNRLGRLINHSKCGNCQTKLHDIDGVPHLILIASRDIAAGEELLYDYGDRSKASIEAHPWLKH
Experimental: For whole cell CETSA, the cells were incubated with 10/15 μM of compound 7b/8/8-N for 18 h. Then, cells were washed with cell culture medium, detached from the surface using trypsin, washed with PBS and the number of cells was determined. Cell concentration was adjusted to 3.6 × 10^7 cells/mL using in PBS with Complete (w/o EDTA, Roche) protease inhibitor. Then, cells were frozen in liquid nitrogen and thawed at 25 °C three times, before being divided in 16 aliquots. Each aliquot was heated to a defined temperature between 40 and 70 °C in a PCR cycler (16 well gradient, 55 °C ± 15). After 3 min incubation, aliquots were snap frozen in liquid nitrogen and thawed at 25 °C. Cell lysates were then centrifuged at 20,000 × g , 4 °C for 20 min. Supernatant were mixed with 5× loading buffer, heated to 70 °C for 5 min and analyzed by Western blotting essentially as previously described. For the CETSA performed with cell lysates, cells were directly harvested and lysed as described above. […]
Figure S5. […] Representative Western blots (D) and quantification (E) showing increased melting temperatures (ΔT m) of endogenous KMT9a upon treatment with compound 8 compared to DMSO. […] Representative Western blots (F) and quantification (G) showing no obvious shifting melting temperatures (ΔT m) of endogenous KMT5A upon treatment with compound 8 compared to DMSO. […]

SW480 cells = test: Cell proliferation assay (X-Celligence), SW480; type: cell-based; details: Xcelligence, vs DMSO
Experimental: Cell proliferation was determined using the X-Celligence RTCA system (Roche). For real-time recording of SW480, Caco-2 cell proliferation, 5000 cells/well were seeded in 16 well E-plates (Roche). Cells were seeded in the presence of DMSO or compound 8/8-N or transfected with the indicated siRNAs in the presence of Dharmafect (Life Technologies) 24 h before seeding in E-plates. Cell indices were automatically recorded every 15 min. Relative velocities represent the change of the cell index over time. The sequences of the siRNAs (Stealth RNAi siRNAs; Life Technologies) used in the experiments have been previously described.

Q: Which results are given for `CCOC(=O)[C@@H](N)CCN(CCCNCCc1ccc(Oc2ccc(Cl)cc2)c(F)c1)C[C@H]1C[C@@H](n2ccc3c(NC)ncnc32)[C@H](O)[C@@H]1O` [compound 8, Ethyl (S)-2-amino-4-((3-((4-(4-chlorophenoxy)-3-fluorophenethyl)amino)propyl) (((1R,2R,3S,4R)-2,3-dihydroxy-4-(4-(methylamino)-7H-pyrrolo[2,3-d]pyrimidin-7-yl)cyclopentyl)methyl)amino)butanoate]?
A: Decrease of binding affinity compared to compound 7b (KMT9; Kd ratio vs compound 7b): more than 10,000 fold; Kd (KMT9; MST, binding to KMT9, read-out: Kd): > 400 µM; ΔTm at 15 µM (KMT5A): 0.1 °C; Proliferation of SW480 cells (SW480 cells): also found in SW480 tumor cell lines
